According to ChEMBL document CHEMBL1146786, “Lingshuiol, a novel polyhydroxyl compound with strongly cytotoxic activity from the marine dinoflagellate Amphidinium sp” (Bioorg Med Chem Lett, 2004):
pIC50: −log10 of the molar value.

Columns and labels:
HL-60 = assay: In vitro cytotoxic activity of compound against HL-60 cell line; format: functional, cell-based; conditions: Homo sapiens
A549 = assay: In vitro cytotoxic activity of compound against A-549 cell line; format: functional, cell-based; conditions: Homo sapiens

For `C=CCCCCCCCCCC/C=C/C(O)C(O)C1OC(C(O)C(O)C(=C)CCC(O)C2CC(O)C(O)C(C(O)C(O)/C=C(\C)CC(O)CC(O)C(O)C(O)C(O)C(O)C(C)CC(O)C(O)CC(C)/C=C/CCC(O)CC(=O)/C=C/CCCCC(O)CO)O2)CC(O)C1O` (configuration not stated) [LINGSHUIOL], the pIC50 (HL-60) was 6.64 and the pIC50 (A549) was 6.68.
